Data set [1] addresses T1, ENaC (Epithelial Sodium Channel) (Mus musculus, UniProt Q61180+Q9WU38+Q9WU39).
T1 construct: Mouse kidney M-1 cells were cultivated in DMEM containing 5% FCS and 5 μM dexamethasone; endogenous in cells; host or cells: Mouse kidney M-1 cells
T1 sequence (Q61180 1-699): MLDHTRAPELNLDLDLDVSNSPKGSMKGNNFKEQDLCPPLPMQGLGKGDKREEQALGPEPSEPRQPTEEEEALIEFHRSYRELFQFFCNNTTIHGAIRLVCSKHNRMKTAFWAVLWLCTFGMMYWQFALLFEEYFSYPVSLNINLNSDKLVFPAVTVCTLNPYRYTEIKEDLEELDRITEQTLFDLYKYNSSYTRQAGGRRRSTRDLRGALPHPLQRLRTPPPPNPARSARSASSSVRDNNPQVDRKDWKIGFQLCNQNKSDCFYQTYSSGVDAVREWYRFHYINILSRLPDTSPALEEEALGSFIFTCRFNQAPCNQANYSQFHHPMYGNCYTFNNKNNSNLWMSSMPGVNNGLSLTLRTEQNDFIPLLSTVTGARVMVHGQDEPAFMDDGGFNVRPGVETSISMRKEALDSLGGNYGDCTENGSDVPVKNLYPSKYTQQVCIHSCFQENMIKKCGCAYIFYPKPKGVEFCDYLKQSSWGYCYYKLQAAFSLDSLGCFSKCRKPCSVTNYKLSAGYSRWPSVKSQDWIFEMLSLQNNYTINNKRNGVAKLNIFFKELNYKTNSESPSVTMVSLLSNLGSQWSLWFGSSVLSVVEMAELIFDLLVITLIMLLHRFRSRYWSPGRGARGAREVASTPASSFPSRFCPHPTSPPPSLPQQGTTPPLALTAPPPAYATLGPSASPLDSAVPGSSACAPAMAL
T1 sequence (Q9WU38 1-638): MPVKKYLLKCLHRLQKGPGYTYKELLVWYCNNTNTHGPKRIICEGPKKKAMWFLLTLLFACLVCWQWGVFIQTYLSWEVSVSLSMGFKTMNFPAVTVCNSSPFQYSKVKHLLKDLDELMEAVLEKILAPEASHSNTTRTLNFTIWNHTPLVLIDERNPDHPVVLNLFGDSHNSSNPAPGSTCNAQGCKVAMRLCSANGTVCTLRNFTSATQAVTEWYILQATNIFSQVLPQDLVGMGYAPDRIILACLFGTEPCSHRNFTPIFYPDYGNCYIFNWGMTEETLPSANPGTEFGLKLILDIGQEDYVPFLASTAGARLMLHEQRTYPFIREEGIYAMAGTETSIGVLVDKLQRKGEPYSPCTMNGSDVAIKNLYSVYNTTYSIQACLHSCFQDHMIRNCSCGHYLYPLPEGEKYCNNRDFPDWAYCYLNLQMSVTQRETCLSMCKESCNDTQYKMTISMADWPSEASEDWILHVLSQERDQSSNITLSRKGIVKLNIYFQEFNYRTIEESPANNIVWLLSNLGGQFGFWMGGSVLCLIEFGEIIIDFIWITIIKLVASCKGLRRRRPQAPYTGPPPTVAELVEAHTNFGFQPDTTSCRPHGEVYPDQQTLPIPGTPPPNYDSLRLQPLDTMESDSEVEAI
T1 sequence (Q9WU39 1-655): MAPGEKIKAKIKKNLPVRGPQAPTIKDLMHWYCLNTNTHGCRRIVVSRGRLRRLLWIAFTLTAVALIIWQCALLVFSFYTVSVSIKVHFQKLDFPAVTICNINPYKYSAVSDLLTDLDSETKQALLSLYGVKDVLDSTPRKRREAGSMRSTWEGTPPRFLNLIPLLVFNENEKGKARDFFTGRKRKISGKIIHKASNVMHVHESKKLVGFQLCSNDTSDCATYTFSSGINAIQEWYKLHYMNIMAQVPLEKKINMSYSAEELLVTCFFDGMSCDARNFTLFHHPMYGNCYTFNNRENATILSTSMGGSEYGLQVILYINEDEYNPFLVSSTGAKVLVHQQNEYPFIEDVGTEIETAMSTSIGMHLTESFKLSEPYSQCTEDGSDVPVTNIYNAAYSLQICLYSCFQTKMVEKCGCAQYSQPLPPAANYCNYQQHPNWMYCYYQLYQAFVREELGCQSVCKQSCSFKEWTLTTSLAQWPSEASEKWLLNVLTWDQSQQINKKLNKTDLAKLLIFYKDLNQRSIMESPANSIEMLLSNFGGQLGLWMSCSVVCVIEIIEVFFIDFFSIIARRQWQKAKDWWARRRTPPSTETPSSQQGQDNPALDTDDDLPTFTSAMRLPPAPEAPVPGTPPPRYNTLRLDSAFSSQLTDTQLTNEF
The experiment in a line: Ussing Chamber assay (short circuit current, amiloride sensitive I_SC) in M-1 cells. Conditions: Mouse kidney M-1 cells, apical application, 37° C. Format: cell-based. The procedure: The IC50 values of the example compounds given above were determined in the Ussing Chamber assay.
Ussing Chamber: Mouse kidney M-1 cells were cultivated in DMEM containing 5% FCS and 5 μM dexamethasone for 10 to 12 days on polyester transwell filters. Filters were inserted into a teflon-coated well-plate which fit into the ussing chamber system. Prior to measurement the medium of M-1 cells was replaced with Caco-2 transport buffer (Invitrogen, Germany). During measurements, the Ussing chamber temperature was kept at 37° C. Short circuit currents (I_sc) were measured in the voltage-clamp mode with the software package Lab View for data acquisition and analysis. The transepithelial electrical resistance (TEER) was determined by the application of voltage steps of ±5 mV every 5 sec. Compounds were administered at a final concentration of 3 μM or at increasing concentrations (1-3-10 μM) to the apical solution. At the end of each experiment the amiloride sensitive I_SC was measured by adding 3 μM amiloride to the apical compartment. Results are expressed as inhibition in percent of the amiloride effect or as IC50.

Data set [2] can be described thus: Permeability in CALU-3 cells. Format: in vitro ADME. Conditions: human, CALU-3 monolayers, pH 7.4, 37° C., 10 μM compound; for Papp A→B at 90 min, 10 μM: apical-to-basal; for Papp B→A at 90 min, 10 μM: basal-to-apical. Here is the method: Permeability in CALU-3 Cells:
Permeability measurements across polarized, confluent CALU-3 cell monolayers grown on permeable filter supports are used to provide information on the potential of a compound to pass the lung epithelium. Apparent permeability coefficients (Papp) of the compounds across the CALU-3 cell monolayers are measured (pH 7.4, 37° C.) in apical-to-basal (AB) and basal-to-apical (BA) transport direction.
CALU-3 cells (1-2×10^5 cells/1 cm^2 area) are seeded on filter inserts (Costar transwell polycarbonate filters, 0.4 μm pore size) and cultured (for 10-12 days DMEM) until tight monolayers are formed. Compounds of interest are dissolved in appropriate solvent (DMSO, 10 mM stock solution). Stock solutions are diluted with HTP-4 buffer (128.13 mM NaCl, 5.36 mM KCl, 1 mM MgSO4, 1.8 mM CaCl2, 4.17 mM NaHCO3, 1.19 mM Na2HPO4×7H2O, 0.41 mM NaH2PO4×H2O, 15 mM HEPES, 20 mM glucose, 0.25% BSA, pH 7.4) to prepare the transport solutions (10 μM compound, final DMSO<=0.5%). The transport solution (TL) is applied to the apical or basolateral donor side for measuring A-B or B-A permeability (3 filter replicates), respectively. The receiver side contains the same buffer as the donor side. After 30 min of accommodation, samples are collected at the start t0=0 min and at the end of the experiment tn=90 min from the donor and at 0, 30, 60, and 90 min also from the receiver chamber. Volume removed is […] by HTP-4 buffer. The compound concentration in the samples is measured by HPLC-MS/MS or scintillation counting. The permeability coefficient (Papp) and efflux ratio are calculated according to: Papp [cm/s]=(concentration receiver [nM]*volume receiver [mL]/time interval [sec])*(1/filter area)*(1/donor concentration [nM]).

Molecules are shown by their SMILES.

In general, IC50 refers to the concentration that gives 50% inhibition. The Papp A→B is the apparent permeability from the apical to the basolateral side of a cell layer. The Papp B→A is how fast a substance crosses the layer from the basolateral side. In data set [1], `CC[n+]1c(CNC(=O)c2nc(Cl)c(N)nc2N)n(C[C@H](C)O)c2cc(OCCN(CP(C)(C)=O)C(=O)CC(C)C)ccc21.O=C([O-])C(F)(F)F` [Example 1.05] showed an IC50 of 1 nM. For the same compound, in data set [2], the Papp A→B at 90 min, 10 μM was determined as 0.1 ×10⁻⁶ cm/s and the Papp B→A at 90 min, 10 μM was 0.01 ×10⁻⁶ cm/s.
Compound `CC[n+]1c(CNC(=O)c2nc(Cl)c(N)nc2N)n(C[C@H](C)O)c2cc(N(C)C)c(C(=O)N3CCN(C(=O)OC(C)(C)C)CC3)cc21.O=C([O-])C(F)(F)F` [Example 1.02] displayed an IC50 in data set [1] of 25 nM. In data set [2], this compound yielded a Papp A→B at 90 min, 10 μM of 0.08 ×10⁻⁶ cm/s and a Papp B→A at 90 min, 10 μM of 0.1 ×10⁻⁶ cm/s.
The matching figures for `CCOCCNC(=O)c1cc2c(cc1N1CCOCC1)n(CC)c(CNC(=O)c1nc(Cl)c(N)nc1N)[n+]2CC.[Cl-]` [Example 5.01]: 5 nM, 0.3 ×10⁻⁶ cm/s and 0.06 ×10⁻⁶ cm/s.
The matching figures for `CC[n+]1c(CNC(=O)c2nc(Cl)c(N)nc2N)n(C[C@H](C)O)c2cc(N(C)C)c(C(=O)N3CCN(C(=O)Cc4ccccn4)CC3)cc21.O=C([O-])C(F)(F)F` [Example 4.14]: 19 nM, 0.3 ×10⁻⁶ cm/s and 0.2 ×10⁻⁶ cm/s.
Take `CCCCCOc1cc2c(cc1C(=O)N1CCN(C(=O)Cc3ccccn3)CC1)[n+](CC)c(CNC(=O)c1nc(Cl)c(N)nc1N)n2C[C@H](C)O.O=C([O-])C(F)(F)F` [Example 4.15]: the IC50 in data set [1] came out at 34 nM. In data set [2], this compound returned a Papp A→B at 90 min, 10 μM of 0.3 ×10⁻⁶ cm/s and a Papp B→A at 90 min, 10 μM of 0.3 ×10⁻⁶ cm/s.
In data set [1], `CCn1c(CNC(=O)c2nc(Cl)c(N)nc2N)[n+](CC)c2cc(C(=O)N3CCN(C(=O)N4CCOCC4)CC3)c(F)cc21` [Example 3.15] showed an IC50 of 1 nM.
On the same count and under the same terms, the figure for `CCn1c(CNC(=O)c2nc(Cl)c(N)nc2N)[n+](CC)c2ccc(OCC(=O)N(C)Cc3nc(C)ccc3[O-])cc21` [Example 3.02] is 0.4 nM; for `CCNC(=O)c1cc2c(cc1OCC(=O)NC1CCN(C)CC1)n(CC)c(CNC(=O)c1nc(Cl)c(N)nc1N)[n+]2CC` [Example 3.18] it is 4 nM.
Take `CCN1CCC(NC(=O)COc2ccc3c(c2)n(CC)c(CNC(=O)c2nc(Cl)c(N)nc2N)[n+]3CC)CC1` [Example 3.09]: in data set [1], it took 0.2 nM to reach half-maximal inhibition (IC50).
In data set [1], `CC[n+]1c(CNC(=O)c2nc(Cl)c(N)nc2N)n(CCO)c2cc(OCC(=O)NC3CCN(C(C)=O)CC3)ccc21` [Example 1.04] yielded an IC50 of 2 nM.
`CCNC(=O)c1cc2c(cc1OCC(=O)OC(C)(C)C)n(CC)c(CNC(=O)c1nc(Cl)c(N)nc1N)[n+]2CC` [Example 1.11] returned an IC50 in data set [1] of 10 nM.
Same read-out and setting: as for `CCNC(=O)c1cc2c(cc1OCC(=O)O)n(CC)c(CNC(=O)c1nc(Cl)c(N)nc1N)[n+]2CC` [Example 7.01], the figure is 38 nM.
On the same count and under the same terms, as for `CCCCCOc1cc2c(cc1C(=O)N1CCN(C(=O)OC(C)(C)C)CC1)[n+](CC)c(CNC(=O)c1nc(Cl)c(N)nc1N)n2C[C@H](C)O` [Example 1.10], the figure is 52 nM; as for `CCn1c(CNC(=O)c2nc(Cl)c(N)nc2N)[n+](CC)c2ccc(OCCNC(=O)[C@H](C)N)cc21` [Example 6.07], 0.4 nM.
As to `CCn1c(CNC(=O)c2nc(Cl)c(N)nc2N)[n+](CC)c2ccc(OCCNC(=O)C3CCCN3C(=O)OC(C)(C)C)cc21` (stereo not shown) [Example 4.11], the IC50 in data set [1] came to 2 nM.
Same read-out and setting: as for `CCn1c(CNC(=O)c2nc(Cl)c(N)nc2N)[n+](CC)c2ccc(C(=O)NCCNS(C)(=O)=O)cc21` [Example 3.14], the figure is 0.4 nM.
The compound `CCn1c(CNC(=O)c2nc(Cl)c(N)nc2N)[n+](CC)c2ccc(OCC(=O)Nc3cncc([O-])c3)cc21` [Example 3.03] registered an IC50 in data set [1] of 0.3 nM.
The same measure, in the same setting: the figure for `CC[n+]1c(CNC(=O)c2nc(Cl)c(N)nc2N)n(CC2CCCCC2)c2cc(OCC[n+]3cccc(O)c3)ccc21` [Example 1.03] is 5 nM; for `CCCCCCN1CCC(NC(=O)COc2ccc3c(c2)n(CC)c(CNC(=O)c2nc(Cl)c(N)nc2N)[n+]3CC)CC1` [Example 3.04] it is 0.6 nM.
Regarding `CCN(CC)CC(=O)NCCOc1ccc2c(c1)n(CC)c(CNC(=O)c1nc(Cl)c(N)nc1N)[n+]2CC` [Example 4.04], in data set [1], the IC50 was 1 nM.
Turning to `CCn1c(CNC(=O)c2nc(Cl)c(N)nc2N)[n+](CC)c2ccc(OCC(=O)Nc3cncc(OCc4ccccc4)c3)cc21` [Example 3.13], in data set [1], the half-inhibitory concentration (IC50) came to 2 nM.
In data set [1], `CC[n+]1c(CNC(=O)c2nc(Cl)c(N)nc2N)n(C[C@H](C)O)c2cc(N(C)C)c(C(=O)N3CCN(C(=O)c4cncc(O)c4)CC3)cc21` [Example 4.17] displayed an IC50 of 23 nM.
Still for that read-out and setting: the figure for `CCCn1c(CNC(=O)c2nc(Cl)c(N)nc2N)[n+](C)c2ccc(OCC(=O)N(C)Cc3nc(C)ccc3O)cc21` [Example 1.07] is 3 nM.
On the same count and under the same terms, as for `CCn1c(CNC(=O)c2nc(Cl)c(N)nc2N)[n+](CC)c2ccc(OCC(=O)NC3CCNCC3)cc21` [Example 3.24], the figure is 0.1 nM.
